Measurements from patent US20210338782A1, “STORAGE STABLE SOMATOSTATIN-DOPAMINE CHIMERIC COMPOUNDS AND SALT FORMS THEREOF” (Cydan II, Inc., priority 2019, published 2021).
Where a name gives a salt, the structure may show the parent alone.

What was measured:
Assay type in all cases: physicochemical
[1] = Photostability of TBR-760 salt forms (ICH Q1B, visible and UV light), appearance and UPLC purity; settings: for degradation upon exposure to visible or UV light, in words: visible and UV light
In short: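 Salt forms in clear sealed vials were exposed per ICH Q1B to 1.2 million lux hours visible and 200 watt hours/square meter UV, alongside foil-wrapped amber dark controls; reference controls were held at −20° C. Samples were inspected visually for appearance, then analysed by UPLC for purity.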

[2] = Time and temperature stability of lyophilized TBR-760 salts in sealed glass vials (visual appearance, HPLC); settings: for salt form degraded: sealed glass vials, HPLC, hydrochloride salt
Procedure: Lyophilized TBR-760 salts prepared as described above were assessed for stability by visual appearance and HPLC following initial production of the salt and following incubation of the salt at 20° C., 40° C., and 60° C. for 2, 4, and 8 weeks in sealed, glass vials. Changes in visual appearance of the salt were noted by evaluating the color of the substance following each incubation condition. Purity of the salt following each incubation condition was evaluated by HPLC. The number and quantity of degradation products were determined according to the number of absorbance peaks that resulted at different retention times and the size of the peaks.

[3] = Thermostability of alternative salt forms of lanreotide and TBR-760 (UPLC); settings: for thermostability in words: increasing temperature and humidity (25° C./60% RH, 40° C./75% RH, 60° C.) up to 4 weeks
Procedure: Each TBR-760 salt was further evaluated for thermolytic stability over time by setting up three different exposure conditions (25° C. at 60% relative humidity (RH); 40° C. at 75% RH; or 60° C. with open and closed container systems (open dish/closed dish). Approximately 50 mg of each salt form was weighed in a nitrogen-flushed glove box for use in the studies. All samples were stored at −20° C. in a good laboratory practice (GLP) freezer both before and after exposure to the indicated conditions.
The stability of each salt form was assessed by monitoring the post-exposure drug peak purity and by evaluating the post-exposure visual appearance of the salt. The samples were removed from the exposure conditions and allowed to equilibrate to ambient conditions for 15-20 mins. An appropriate amount of each sample was weighed for analysis and dissolved in diluent (deionized water containing 0.1% TFA) to obtain a stock concentration of 1 mg/mL. The stock solution was then diluted to 0.125 mg/mL in an HPLC vial using diluent and the samples were run on a Waters Acquity UPLC system using the parameters shown in Table 4.
We conducted thermostability studies of lanreotide acetate substantially as described in Example 6. These experiments confirmed that lanreotide acetate is […] when exposed to increasing temperature and humidity conditions over time (FIG. 45). […] (FIG. 45). This degree of thermal and humidity instability is disfavored for a pharmaceutical agent, particularly one intended for patient self-administration at home.
To determine whether a thermostable salt form of TBR-760 could be manufactured, a salt exchange was performed as described in Example 1 to generate bromide and chloride salts of TBR-760. Lanreotide bromide and lanreotide chloride salts were also generated and assessed for thermostability to evaluate the effect of the salt form on compound stability and to compare stability of lanreotide and TBR-760 of each salt.
UPLC assays performed as described in Example 6 were further used to determine the number of degradants—and thus the number of impurities—in each sample. Results showing the purity assessment of each sample following thermostability studies are shown in FIGS. 48A-48B (lanreotide and TBR-760 acetate salts), 49A-49B (lanreotide and TBR-760 bromide salts), and 50A-50B (lanreotide and TBR-760 chloride salts).

[4] = Thermogravimetric analysis (TGA) of TBR-760 salt forms; settings: ramp 5.0° C. per minute from 25 to 400° C.; hydrochloride salt
In short: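 Each salt form heated from 25 to 400 °C at 5.0 °C per minute while sample weight was recorded, to assess thermal stability.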

[5] = Photostability of alternative salt forms of lanreotide and TBR-760; settings: 1.2 million lux hours visible light or 200 watt hours/square meter UV light, hydrochloride salt
Excerpt: In order to evaluate the light sensitivity and stability of TBR-760 chimeric peptide salts, all five salt forms were exposed to ultraviolet (UV) and visible light according to International Council for Harmonisation of Technical Requirements for Pharmaceuticals for Human Use (ICH) guideline Q1B for photostability testing. In brief, a Caron 6540-1 photostability chamber unit with separate UV and light chambers was used for the studies. Visible light exposure was 1.2 million lux hours and UV exposure was 200 watt hours/square meter.
Photostability of lanreotide acetate, lanreotide bromide, lanreotide chloride, TBR-760 acetate, TBR-760 bromide and TBR760 chloride was tested according to the methods of Example 7. Four samples were prepared for each salt form: one control for each of the UV and visible light exposure conditions (controls isolated from light) and one sample for exposure to each of the UV and visible light conditions. For each sample, 2-5 mg of the salt was weighed into 3 mL clear serum vials and stoppered. Vials containing control samples were wrapped in aluminum foil.
Following exposure to visible and UV light, all lanreotide and TBR-760 salts were analyzed by UPLC as described in Example 7.

[6] = Solid state (thermolytic) stability of TBR-760 salt forms, open container, UPLC peak purity and appearance
In short: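 About 50 mg of each salt form exposed in open containers at 25° C/60% RH, 40° C/75% RH or 60° C, then stored at −20° C. After 15–20 min equilibration, appearance was noted; samples were dissolved in 0.1% TFA water and diluted to 0.125 mg/mL for UPLC peak purity.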

[7] = all thermostability conditions, UPLC
[8] = 25° C. at 60% RH, open container
[9] = 40° C. at 75% RH, open container
[10] = 60° C., open dish, hydrochloride salt
[11] = UPLC peak purity, 25° C. at 60% RH, open container, hydrochloride salt
[12] = UPLC peak purity, 40° C. at 75% RH, open container, hydrochloride salt
[13] = UPLC peak purity, 60° C., open dish, hydrochloride salt

Structure (SMILES): CCCN1C[C@H](CSCC(=O)NCCCC[C@@H](NC(=O)CSC[C@@H]2C[C@@H]3c4cccc5[nH]cc(c45)C[C@H]3N(CCC)C2)C(=O)N[C@H]2CSSC[C@@H](C(=O)N[C@H](C(N)=O)[C@@H](C)O)NC(=O)[C@H](CC)NC(=O)[C@H](CCCCN)NC(=O)[C@@H](Cc3c[nH]c4ccccc34)NC(=O)[C@H](Cc3ccc(O)cc3)NC2=O)C[C@@H]2c3cccc4[nH]cc(c34)C[C@H]21 [TBR-760 chloride, Dop2-D-Lys(Dop2)-cyclo[Cys-Tyr-D-Trp-Lys-Abu-Cys]-Thr-NH2 hydrochloride salt]
- Purity, UV-exposed ([1]; UPLC, UV 200 watt hours/square meter, clear sealed vial, hydrochloride salt): 97.06
- Purity, Control ([1]; UPLC, control in sealed amber vial at -20° C., hydrochloride salt): 98.31
- Purity, Dark Ctrl-UV ([1]; UPLC, dark control in UV chamber, hydrochloride salt): 98.37
- Purity, Dark Crtl-Light ([1]; UPLC, dark control in visible light chamber, hydrochloride salt): 98.33
- Purity, Light-exposed ([1]; UPLC, visible light 1.2 million lux hours, clear sealed vial, hydrochloride salt): 96.41
- stability following UV exposure, in words ([1]; UV 200 watt hours/square meter): more stable following UV exposure than the acetate, mesylate, sulfate, or tosylate salts
- Appearance, UV-exposed ([1]; UV 200 watt hours/square meter, clear sealed vial, listed as Chloride, hydrochloride salt): white
- Appearance, UV-exposed ([1]; UV 200 watt hours/square meter, clear sealed vial, listed as chloride salt, hydrochloride salt): remained unchanged
- Appearance, Control ([1]; control in sealed amber vial at -20° C.): white
- Appearance, Dark Ctrl-UV ([1]; dark control in UV chamber, amber vial wrapped in aluminum foil): white
- Appearance, Dark Crtl-Light ([1]; dark control in visible light chamber, amber vial wrapped in aluminum foil): white
- degradation upon exposure to visible or UV light, in words ([1]; UPLC, hydrochloride salt): more resistant to degradation than TBR-760 acetate
- degradation upon exposure to visible or UV light, in words ([1]; UPLC, listed as TBR-760 chloride salt, hydrochloride salt): more stable
- stability following light exposure, in words ([1]; visible light 1.2 million lux hours): significantly more stable than the TBR-760 acetate salt
- Appearance, Light-exposed ([1]; visible light 1.2 million lux hours, clear sealed vial, listed as Chloride, hydrochloride salt): white
- Appearance, Light-exposed ([1]; visible light 1.2 million lux hours, clear sealed vial, listed as chloride, hydrochloride salt): no visible discoloration
- change in visual appearance ([2]; 8 weeks at 60° C.): no change in the visual appearance
- salt form degraded ([2]; 60° C. for 4 weeks): 0.5%
- salt form degraded ([2]; 60° C. for 8 weeks): less than 1%
- compound degraded ([3]; 4 weeks at 60° C. and ambient humidity, hydrochloride salt): less than 0.6%
- number of impurities compared with other TBR-760 salts [3, 7]: fewer impurities
- percent purity compared with other TBR-760 salts [3, 7]: higher percent purity
- thermostability in words ([3]; listed as TBR-760 hydrochloride, hydrochloride salt): thermostable
- thermostability in words ([3]; listed as chloride salt form of TBR-760, hydrochloride salt): stable
- TGA start of decomposition [4]: ~245 °C
- visible appearance after exposure to visible and UV light ([5]; versus control): did not visibly change
- photostability in words (UPLC purity) [5]: as photostable as TBR-760 acetate
- Appearance, T = 2 wk [6, 8]: White
- Appearance, T = 4 wk [6, 8]: White
- Appearance, T = 3 d [6, 8]: White
- stability compared with the other salt forms ([6]; 40° C. at 75% RH and 60° C., 2 and 4 weeks, hydrochloride salt): significantly more stable
- Appearance, T = 2 wk [6, 9]: White
- Appearance, T = 4 wk ([6]; 40° C. at 75% RH, open container, hydrochloride salt): White
- Appearance, T = 3 d [6, 9]: White
- Appearance, T = 2 wk [6, 10]: White
- Appearance, T = 4 wk [6, 10]: White
- Appearance, T = 3 d ([6]; 60° C., open dish): White
- Purity, T = 2 wk [6, 11]: 98.28
- Purity, T = 4 wk [6, 11]: 98.04
- Purity, T = 3 d [6, 11]: 98.44
- Purity, T = 2 wk [6, 12]: 97.62
- Purity, T = 4 wk [6, 12]: 97.78
- Purity, T = 3 d [6, 12]: 98.36
- Purity, T = 2 wk [6, 13]: 97.58
- Purity, T = 4 wk [6, 13]: 97.17
- Purity, T = 3 d [6, 13]: 98.45
- Purity, Control ([6]; UPLC peak purity, control, stored at -20° C., hydrochloride salt): 98.31
- Appearance, Control ([6]; control, stored at -20° C.): White
- additional degradants in chromatogram versus control ([6]; two weeks at 60° C., open dish, UPLC, hydrochloride salt): two
